The record followed here is BindingDB's records for doi:10.1016/j.bmcl.2011.11.077 (The Broad Institute Probe Development Center, 2011).

As usually defined, the EC50 is the concentration giving half of the maximal effect.

Test [1] has as its target T1, Hypoxia-inducible factor 1-alpha (Homo sapiens, UniProt Q16665). The test is described as follows: Activation of human HIF1alpha expressed in DFX-induced human U2OS cells incubated for 30 mins prior to DFX-induction measured after overnight incubation by luciferase reporter gene assay. On the technique in general: A reporter such as luciferase makes a cellular process visible.

Test [2] can be described thus: Activation of human HIF1alpha expressed in human U2OS cells assessed as increase in VEGF expression by RT-PCR analysis.
Test [3] can be described thus: Activation of GFP-tagged HIF1alpha expressed in human U2OS cells assessed as HIF1alpha nuclear translocation by high content imaging assay.
The target of test [4] is T1, Hypoxia-inducible factor 1-alpha. The test is described as follows: Activation of human HIF1alpha expressed in DFX-induced human U2OS cells incubated for 30 mins prior to DFX-induction measured after overnight incubation by luciferase reporter gene assay in presence of 50 uM iron.
The target is the same in test [5]. The test is described as follows: Activation of human HIF1alpha expressed in DFX-induced human U2OS cells incubated for 30 mins prior to DFX-induction measured after overnight incubation by luciferase reporter gene assay in presence of 50 uM zinc.

T1 sequence (Q16665 whole entry): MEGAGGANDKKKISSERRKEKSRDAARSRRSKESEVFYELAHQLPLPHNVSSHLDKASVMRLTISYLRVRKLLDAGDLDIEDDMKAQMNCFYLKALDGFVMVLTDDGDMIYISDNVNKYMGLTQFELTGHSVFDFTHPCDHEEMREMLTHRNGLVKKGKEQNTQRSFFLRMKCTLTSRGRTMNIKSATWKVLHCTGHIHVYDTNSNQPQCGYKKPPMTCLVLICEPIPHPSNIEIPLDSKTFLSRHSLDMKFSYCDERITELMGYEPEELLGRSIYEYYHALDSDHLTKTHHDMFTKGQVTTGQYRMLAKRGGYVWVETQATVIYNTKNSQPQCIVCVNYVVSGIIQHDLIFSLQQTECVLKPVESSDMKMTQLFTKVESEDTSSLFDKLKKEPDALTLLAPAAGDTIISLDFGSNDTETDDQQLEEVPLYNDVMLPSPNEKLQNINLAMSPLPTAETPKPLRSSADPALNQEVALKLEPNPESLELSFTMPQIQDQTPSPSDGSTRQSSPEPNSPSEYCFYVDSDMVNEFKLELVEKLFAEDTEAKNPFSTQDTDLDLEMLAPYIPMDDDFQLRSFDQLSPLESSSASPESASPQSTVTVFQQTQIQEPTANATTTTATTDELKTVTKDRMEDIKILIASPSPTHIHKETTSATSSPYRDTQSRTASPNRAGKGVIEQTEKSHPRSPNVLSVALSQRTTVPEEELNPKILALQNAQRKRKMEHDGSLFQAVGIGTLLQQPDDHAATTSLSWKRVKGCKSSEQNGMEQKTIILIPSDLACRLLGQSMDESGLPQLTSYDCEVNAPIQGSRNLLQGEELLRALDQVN

With `CC(C)(C)CCNc1nc(-c2ccccn2)nnc1-c1ccccc1`, the values for the EC50 in test [1], in test [2] and in test [3] were 2.97 µM, 2.48 µM and 3.82 µM, respectively.

`OCC1CCN(c2nc(-c3ccccn3)nnc2-c2ccccc2)CC1`: the results for the EC50 in test [1], in test [2] and in test [3] were 22.9 µM, 12.1 µM and 11.6 µM, respectively.

For `O=C(NCCCCO)c1cc(-c2ccccc2)on1`, the values for the EC50 in test [1], in test [2] and in test [3] were 22 µM, 7.57 µM and 3.04 µM, respectively.

Turning to `O=C(NCCCn1ccnc1)c1cc(-c2ccccc2)on1` [MLS000708948], the values for the EC50 in test [1], in test [2] and in test [3] were 8.67 µM, 15.8 µM and 7.72 µM, respectively.

Regarding `c1ccc(-c2nnc(-c3ccccn3)nc2NCc2ccccn2)cc1`, the half-maximal effective concentration (EC50) in test [1] stood at 27.8 µM; in test [2] it was 6.45 µM; in test [3] it was 7.62 µM.

Consider `COc1cccc(CNc2nc(-c3ccccn3)nnc2-c2ccccc2)c1`, for which the concentration giving a half-maximal response (EC50) in test [1] was found to be 4.15 µM; in test [2], 3.92 µM; in test [3], 6.27 µM.

For `Cc1cccc(Nc2nc(-c3ccccn3)nnc2-c2ccccc2)n1`, the EC50 came to 22.4 µM in test [1], 7.55 µM in test [2] and 5.41 µM in test [3].

As for `c1ccc(-c2nnc(-c3ccccn3)nc2NCC2CCCCC2)cc1`, the EC50 was determined as 4.74 µM in test [1], 3.45 µM in test [2] and 2.46 µM in test [3].

As to `c1ccc(CNc2nc(-c3ccccn3)nnc2-c2ccccc2)cc1` [GNF-Pf-100], the results for the EC50 in test [1], in test [2] and in test [3] were 7.74 µM, 4.48 µM and 4.8 µM, respectively.

For `C=CCNc1nc(-c2ccccn2)nnc1-c1ccccc1` [6-phenyl-N-prop-2-enyl-3-(2-pyridinyl)-1,2,4-triazin-5-amine], the values for the half-maximal effective concentration (EC50) in test [1], in test [2] and in test [3] were 7.13 µM, 6.15 µM and 4.62 µM, respectively.

Regarding `C[C@H](Nc1nc(-c2ccccn2)nnc1-c1ccccc1)C1CCCCC1`, the EC50 was 4.17 µM in test [1], 2.55 µM in test [2] and 2.06 µM in test [3].

Consider `c1ccc(CCNc2nc(-c3ccccn3)nnc2-c2ccccc2)cc1`, for which the EC50 in test [1] came to 3.63 µM; in test [2], 8.72 µM; in test [3], 9.82 µM.

For `CN(C)c1nc(-c2ccccn2)nnc1-c1ccccc1` [MLS000541553], the 50% effective concentration (EC50) in test [1] was 7.46 µM; in test [2], 9.06 µM; in test [3], 9.82 µM.

On to `c1ccc(-c2nnc(-c3ccccn3)nc2NCC2CC2)cc1`, for which the values for the concentration for a half-maximal effect (EC50) in test [1], in test [2] and in test [3] were 12.7 µM, 6.21 µM and 4.27 µM, respectively.

Regarding `Cc1cccc(CNc2nc(-c3ccccn3)nnc2-c2ccccc2)c1`, the EC50 in test [1] is 5.41 µM; in test [2] it was 2.91 µM; in test [3] it was 2.39 µM.

Take `c1ccc(-c2nnc(-c3ccccn3)nc2NCCc2ccccn2)cc1`: the EC50 in test [1] worked out at 17.5 µM; in test [2], 9.6 µM; in test [3], 9.84 µM.

Turning to `CN1CCN(c2nc(-c3ccccn3)nnc2-c2ccccc2)CC1`, the concentration for a half-maximal effect (EC50) in test [1] is 21.9 µM; in test [2], 8.69 µM; in test [3], 10.2 µM.

Turning to `c1ccc(-c2cccc(CNc3nc(-c4ccccn4)nnc3-c3ccccc3)c2)cc1`, the concentration for a half-maximal effect (EC50) in test [1] is 2.49 µM; in test [2], 2.57 µM; in test [3] it was 0.5 µM.

With `C[C@@H](Nc1nc(-c2ccccn2)nnc1-c1ccccc1)C1CCCCC1`, the concentration giving a half-maximal response (EC50) came out at 6.73 µM in test [1], 1.88 µM in test [2] and 1.2 µM in test [3].

For the compound `Clc1cccc(CNc2nc(-c3ccccn3)nnc2-c2ccccc2)c1`, the results for the EC50 in test [1], in test [2] and in test [3] were 2.33 µM, 2.77 µM and 1.49 µM, respectively.

Take `c1ccc(-c2nnc(-c3ccccn3)nc2NCCCN2CCOCC2)cc1`: the EC50 in test [1] was 14.2 µM; in test [2], 8.12 µM; in test [3], 6.27 µM.

On to `COc1ccc(CNc2nc(-c3ccccn3)nnc2-c2ccccc2)cc1`, for which the EC50 was 4.74 µM in test [1], 3.67 µM in test [2] and 3.73 µM in test [3].

As for `Cc1ccc(CNc2nc(-c3ccccn3)nnc2-c2ccccc2)cc1C`, the concentration giving a half-maximal response (EC50) was determined as 2.96 µM in test [1], 1.85 µM in test [2] and 2.3 µM in test [3].

As to `c1ccc(-c2nnc(-c3ccccn3)nc2NCc2cccnc2)cc1`, the concentration giving a half-maximal response (EC50) in test [1] is 26 µM; in test [2], 4.35 µM; in test [3] it was 5.02 µM.

With `Cc1ccccc1CNc1nc(-c2ccccn2)nnc1-c1ccccc1`, the EC50 in test [1] turned out to be 6.67 µM; in test [2], 3.08 µM; in test [3], 9.54 µM.

Regarding `O=C(NCC1CC1)c1cc(-c2ccccc2)on1`, the EC50 in test [1] was found to be 24.9 µM; in test [2], 21.5 µM; in test [3], 16.6 µM.

For `CCCCNC(=O)c1cc(-c2ccc(F)cc2)on1`, the EC50 in test [1] worked out at 8.85 µM.

In the case of `c1ccc(-c2nnc(-c3ccccn3)nc2Nc2cnc3ccccc3n2)cc1`, the EC50 in test [1] was determined as 7.64 µM; in test [2], 3.26 µM; in test [3] it was 4.46 µM.

Regarding `O=C(NCCCN1CCOCC1)c1cc(-c2ccccc2)on1`, the concentration for a half-maximal effect (EC50) was 23.9 µM in test [1], 28 µM in test [2] and 20 µM in test [3].

`c1ccc(-c2ccc(CNc3nc(-c4ccccn4)nnc3-c3ccccc3)cc2)cc1`: the EC50 came out at 1.12 µM in test [1]; 15.6 µM in test [4]; 5.01 µM in test [5]; 1.63 µM in test [2]; 1.4 µM in test [3].

Regarding `c1ccc(-c2nnc(-c3ccccn3)nc2NCC2CCOCC2)cc1`, the EC50 in test [1] is 29.5 µM; in test [2], 8.38 µM; in test [3] it was 7.67 µM.

In the case of `c1ccc(-c2nnc(-c3ccccn3)nc2NCCN2CCOCC2)cc1`, the EC50 came to 20.8 µM in test [1], 10 µM in test [2] and 9.08 µM in test [3].

For the compound `CC(C)(C)c1ccc(CNc2nc(-c3ccccn3)nnc2-c2ccccc2)cc1`, the EC50 was found to be 1.71 µM in test [1], 1.12 µM in test [2] and 0.6 µM in test [3].

Consider `Cc1ccc(CNc2nc(-c3ccccn3)nnc2-c2ccccc2)cc1`, for which the EC50 came out at 4.58 µM in test [1], 2.6 µM in test [2] and 1.19 µM in test [3].

`CC(=O)N(O)CCCCCNC(=O)CCC(=O)N(O)CCCCCNC(=O)CCC(=O)N(O)CCCCCN` [N-[5-[[4-[5-[acetyl(hydroxy)amino]pentylamino]-4-oxobutanoyl]-hydroxyamino]pentyl]-N''-(5-aminopentyl)-N''-hydroxybutanediamide;methanesulfonic acid] registered a 50% effective concentration (EC50) in test [1] of 17.8 µM.

For `OCCCNc1nc(-c2ccccn2)nnc1-c1ccccc1`, the concentration for a half-maximal effect (EC50) is 25 µM in test [1], 10.6 µM in test [2] and 10.5 µM in test [3].
